Measured values reported in PubChem BioAssay (NCI).
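Step 1: Grow cells in 96-well plates. Step 2: Expose to compound for 48 hours at 5 concentrations. Step 3: Interpolate endpoints linearly; if unreached, use highest concentration. The concentration for full growth arrest is given as TGI.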

Columns and labels:
Assay in all cases: inhibition of tumour cell growth, NCI panel, 48 h
LXFL 529 NSCLC = test system: LXFL 529 NSCLC
CCRF-CEM leukemia = test system: CCRF-CEM leukemia
MOLT-4 leukemia = test system: MOLT-4 leukemia
RXF-631 renal = test system: RXF-631 renal
KM20L2 colon = test system: KM20L2 colon
SNB-75 CNS = test system: SNB-75 CNS
OVCAR-3 ovarian = test system: OVCAR-3 ovarian
ACHN renal = test system: ACHN renal
SR leukemia = test system: SR leukemia
HT29 colon = test system: HT29 colon
M19-MEL melanoma = test system: M19-MEL melanoma
HOP-18 NSCLC = test system: HOP-18 NSCLC
HOP-92 NSCLC = test system: HOP-92 NSCLC
RPMI-8226 leukemia = test system: RPMI-8226 leukemia
TK-10 renal = test system: TK-10 renal
OVCAR-5 ovarian = test system: OVCAR-5 ovarian
HL-60(TB) leukemia = test system: HL-60(TB) leukemia
DMS 114 small cell lung = test system: DMS 114 small cell lung
SK-MEL-5 melanoma = test system: SK-MEL-5 melanoma
COLO 205 colon = test system: COLO 205 colon
SF-295 CNS = test system: SF-295 CNS
SK-OV-3 ovarian = test system: SK-OV-3 ovarian
A549 NSCLC = test system: A549 NSCLC
OVCAR-8 ovarian = test system: OVCAR-8 ovarian
EKVX NSCLC = test system: EKVX NSCLC
NCI-H226 lung = test system: NCI-H226 lung
U251 CNS = test system: U251 CNS
LOX IMVI melanoma = test system: LOX IMVI melanoma
NCI-H460 lung = test system: NCI-H460 lung
DMS 273 small cell lung = test system: DMS 273 small cell lung
786-0 renal = test system: 786-0 renal
SNB-19 CNS = test system: SNB-19 CNS
K-562 leukemia = test system: K-562 leukemia
SF-268 CNS = test system: SF-268 CNS
SK-MEL-2 melanoma = test system: SK-MEL-2 melanoma
UO-31 renal = test system: UO-31 renal
M14 melanoma = test system: M14 melanoma
KM12 colon = test system: KM12 colon
SW-620 colon = test system: SW-620 colon
OVCAR-4 ovarian = test system: OVCAR-4 ovarian
IGROV1 ovarian = test system: IGROV1 ovarian
SK-MEL-28 melanoma = test system: SK-MEL-28 melanoma
MALME-3M melanoma = test system: MALME-3M melanoma
HCT-15 colon = test system: HCT-15 colon
NCI-H23 lung = test system: NCI-H23 lung
A498 renal = test system: A498 renal
UACC-257 melanoma = test system: UACC-257 melanoma
HOP-62 NSCLC = test system: HOP-62 NSCLC
HCC-2998 colon = test system: HCC-2998 colon
SN12C renal = test system: SN12C renal
HCT-116 colon = test system: HCT-116 colon
RXF 393 renal = test system: RXF 393 renal
CAKI-1 renal = test system: CAKI-1 renal
SNB-78 CNS = test system: SNB-78 CNS
UACC-62 melanoma = test system: UACC-62 melanoma
DLD-1 colon = test system: DLD-1 colon
NCI-H522 lung = test system: NCI-H522 lung
XF 498 CNS = test system: XF 498 CNS
SF-539 CNS = test system: SF-539 CNS

Measured: TGI

CCC(=O)OC[n+]1ccc2c(C)c3[nH]c4ccccc4c3c(C)c2c1
0.725 µM: MOLT-4 leukemia
2.51 µM: SK-MEL-5 melanoma
2.2 µM: RPMI-8226 leukemia
2.34 µM: HOP-92 NSCLC
2.3 µM: KM20L2 colon
2.68 µM: CCRF-CEM leukemia | OVCAR-3 ovarian
1.78 µM: LXFL 529 NSCLC
0.701 µM: HOP-18 NSCLC
2.36 µM: HT29 colon
3.18 µM: TK-10 renal
2 µM: M19-MEL melanoma
2.55 µM: SNB-75 CNS
1.95 µM: DMS 114 small cell lung
1.91 µM: RXF-631 renal | OVCAR-5 ovarian
6.18 µM: HL-60(TB) leukemia
1.88 µM: SF-295 CNS
1.76 µM: ACHN renal
0.553 µM: SR leukemia
1.55 µM: COLO 205 colon

CCCCCCCCCCCC(=O)OCCOCCOCCOCCOCCOC(=O)CCCCCCCCCCC
not listed: XF 498 CNS | SF-539 CNS
> 100 µM: all other assays above

OCC12C=CC(C1)c1ccccc12 (stereo unspecified)
not listed: SNB-75 CNS | EKVX NSCLC | SK-MEL-2 melanoma | KM12 colon | RXF 393 renal | SNB-78 CNS | NCI-H522 lung | XF 498 CNS | SF-539 CNS
> 100 µM: all other assays above

CCCC1(CC(=O)O)OCCc2c1[nH]c1ccccc21 (stereo unspecified)
not listed: RXF-631 renal | SR leukemia | HT29 colon | NCI-H460 lung | HCT-116 colon | NCI-H522 lung
> 100 µM: all other assays above
